Results reported in PubChem BioAssay AID248 (DTP/NCI, 2004).
Several values for one entry are separate records, joined by “and”; a condition that tells them apart may be missing. Identical values can stand only once. Inconclusive results and toxic doses are left out. Rule as the data show it: active = T/C of 150% or more; inactive = T/C below 125%.

Tested on: L1210 leukemia ip in BDF1 mice, survival T/C
Assay: NCI In Vivo Anticancer Drug Screen. Data for tumor model L1210 Leukemia (intraperitoneal) in B6D2F1 (BDF1) mice
Conditions: endpoint: mean survival time, higher = longer survival
How it was run: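 Tumor cells were implanted, animals were treated, and survival was followed. The result divides the treated measurement by the vehicle-control measurement.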

[1] = dose: 100.0 mg/kg/injection, schedule: Q01DX001 (ip), vehicle: saline with Tween-80
[2] = dose: 200.0 mg/kg/injection, schedule: Q01DX001 (ip), vehicle: saline with Tween-80
[3] = dose: 400.0 mg/kg/injection, schedule: Q01DX001 (ip), vehicle: saline with Tween-80
[4] = dose: 100.0 mg/kg/injection, schedule: Q04DX003 (ip), vehicle: saline with Tween-80
[5] = dose: 100.0 mg/kg/injection, schedule: Q04DX003 (ip), vehicle: Klucel (hydroxypropylcellulose) (HPC)
[6] = dose: 200.0 mg/kg/injection, schedule: Q04DX003 (ip), vehicle: Klucel (hydroxypropylcellulose) (HPC)
[7] = dose: 400.0 mg/kg/injection, schedule: Q04DX003 (ip), vehicle: Klucel (hydroxypropylcellulose) (HPC)
[8] = dose: 50.0 mg/kg/injection, schedule: Q01DX001 (ip), vehicle: saline
[9] = dose: 100.0 mg/kg/injection, schedule: Q01DX001 (ip), vehicle: saline
[10] = dose: 200.0 mg/kg/injection, schedule: Q01DX001 (ip), vehicle: saline
[11] = dose: 400.0 mg/kg/injection, schedule: Q01DX001 (ip), vehicle: saline
[12] = dose: 50.0 mg/kg/injection, schedule: Q01DX009 (ip), vehicle: Klucel (hydroxypropylcellulose) (HPC)
[13] = dose: 100.0 mg/kg/injection, schedule: Q01DX009 (ip), vehicle: Klucel (hydroxypropylcellulose) (HPC)
[14] = dose: 200.0 mg/kg/injection, schedule: Q01DX009 (ip), vehicle: Klucel (hydroxypropylcellulose) (HPC)
[15] = dose: 200.0 mg/kg/injection, schedule: Q04DX003 (ip), vehicle: saline with Tween-80
[16] = dose: 400.0 mg/kg/injection, schedule: Q01DX009 (ip), vehicle: Klucel (hydroxypropylcellulose) (HPC)
[17] = dose: 400.0 mg/kg/injection, schedule: Q04DX003 (ip), vehicle: saline with Tween-80
[18] = dose: 100.0 mg/kg/injection, schedule: Q04DX002 (ip), vehicle: Klucel (hydroxypropylcellulose) (HPC)
[19] = dose: 200.0 mg/kg/injection, schedule: Q04DX002 (ip), vehicle: Klucel (hydroxypropylcellulose) (HPC)
[20] = dose: 400.0 mg/kg/injection, schedule: Q04DX002 (ip), vehicle: Klucel (hydroxypropylcellulose) (HPC)
[21] = dose: 100.0 mg/kg/injection, schedule: Q04DX003 (ip), vehicle: saline
[22] = dose: 200.0 mg/kg/injection, schedule: Q04DX003 (ip), vehicle: saline
[23] = dose: 400.0 mg/kg/injection, schedule: Q04DX003 (ip), vehicle: saline
[24] = dose: 100.0 mg/kg/injection, schedule: Q01DX009 (ip), vehicle: saline
[25] = dose: 200.0 mg/kg/injection, schedule: Q01DX009 (ip), vehicle: saline

Measured: T/C

C1CCC(CCC(CCCC2CCCC2)CCC2CCCCC2)CC1
inactive: [1] 94 % of control | [2] 94 % of control | [3] 102 % of control

CCCCCCCC1N(C)CCCN1C
inactive: dose: 25.0 mg/kg/injection, schedule: Q01DX009 (ip), vehicle: saline with Tween-80 88 % of control | dose: 25.0 mg/kg/injection, schedule: Q04DX003 (ip), vehicle: saline with Tween-80 93 % of control | dose: 50.0 mg/kg/injection, schedule: Q01DX009 (ip), vehicle: saline with Tween-80 95 % of control | dose: 50.0 mg/kg/injection, schedule: Q04DX003 (ip), vehicle: saline with Tween-80 96 % of control | [4] 95 % of control and 92 % of control

CCCCCCCCCCCCCCCC(=O)Oc1ccc(C(=S)N2CCOCC2)cc1
inactive: [5] 103 % of control | [6] 99 % of control | [7] 99 % of control

CSc1ccc2c(c1)N(CCC1CCCCN1C)c1ccccc1S2 (stereo not given)
inactive: dose: 0.78 mg/kg/injection, schedule: Q01DX009 (ip), vehicle: saline 101 % of control | dose: 1.56 mg/kg/injection, schedule: Q01DX009 (ip), vehicle: saline 103 % of control | dose: 3.12 mg/kg/injection, schedule: Q01DX009 (ip), vehicle: saline 94 % of control and 98 % of control | dose: 6.25 mg/kg/injection, schedule: Q01DX009 (ip), vehicle: saline 94 % of control and 101 % of control | dose: 12.5 mg/kg/injection, schedule: Q01DX009 (ip), vehicle: saline 98 % of control and 116 % of control | dose: 25.0 mg/kg/injection, schedule: Q04DX003 (ip), vehicle: saline 103 % of control | dose: 50.0 mg/kg/injection, schedule: Q04DX003 (ip), vehicle: saline 92 % of control

O=S(=O)(O)Nc1ccc(S(=O)(=O)O)c2ccccc12
inactive: [8] 102 % of control | [9] 93 % of control | [10] 96 % of control | [11] 98 % of control

ClC(Cl)(Cl)c1ccc(C(Cl)(Cl)Cl)cc1
inactive: dose: 12.5 mg/kg/injection, schedule: Q01DX009 (ip), vehicle: Klucel (hydroxypropylcellulose) (HPC) 96 % of control | dose: 25.0 mg/kg/injection, schedule: Q01DX009 (ip), vehicle: Klucel (hydroxypropylcellulose) (HPC) 104 % of control | [12] 94 % of control and 97 % of control | [13] 94 % of control | [5] 105 % of control | [6] 91 % of control

Brc1cnc(OCc2ccccc2)nc1OCc1ccccc1
inactive: [13] 91 % of control | dose: 100.0 mg/kg/injection, schedule: Q01DX009 (ip), vehicle: saline with Tween-80 103 % of control | [5] 96 % of control | [4] 103 % of control | [14] 102 % of control | dose: 200.0 mg/kg/injection, schedule: Q01DX009 (ip), vehicle: saline with Tween-80 102 % of control | [6] 100 % of control | [15] 97 % of control | [16] 104 % of control | dose: 400.0 mg/kg/injection, schedule: Q01DX009 (ip), vehicle: saline with Tween-80 101 % of control | [7] 93 % of control | [17] 92 % of control

COCCOC(=O)c1ccc(C(N)=NC2CCCCC2)cc1
inactive: [9] 96 % of control | [10] 97 % of control

CN(C)C(=O)Sc1ccc2c(c1)CCC1C2CCC2(C)C(=O)CCC12 (stereo not given)
inactive: dose: 100.0 mg/kg/injection, schedule: Q01DX001 (ip), vehicle: gum acacia 101 % of control | dose: 200.0 mg/kg/injection, schedule: Q01DX001 (ip), vehicle: gum acacia 101 % of control | dose: 400.0 mg/kg/injection, schedule: Q01DX001 (ip), vehicle: gum acacia 97 % of control

CC(CSc1ccccc1)NCCO (stereo not given)
inactive: [4] 97 % of control

Cc1cc([N+](=O)[O-])cc(Br)c1N
inactive: [15] 93 % of control | [17] 91 % of control

O=C(O)C12C3(Cl)C4(Cl)C5(OCCO5)C5(Cl)C3(Cl)C1(Cl)C5(Cl)C42Cl (stereo not given)
inactive: [8] 105 % of control | [9] 102 % of control | [10] 100 % of control

NC1=NC(=O)C(c2ccccc2)(c2ccccc2)S1
inactive: dose: 100.0 mg/kg/injection, schedule: Q01DX001 (ip), vehicle: carboxymethylcellulose (CMC) 91 % of control | [13] 97 % of control | [18] 94 % of control | dose: 200.0 mg/kg/injection, schedule: Q01DX001 (ip), vehicle: carboxymethylcellulose (CMC) 98 % of control | [14] 97 % of control | [19] 90 % of control | dose: 400.0 mg/kg/injection, schedule: Q01DX001 (ip), vehicle: carboxymethylcellulose (CMC) 91 % of control | [16] 97 % of control | [20] 97 % of control

O=C1C=CC(=O)c2[nH]c(=O)ccc21
inactive: dose: 5.0 mg/kg/injection, schedule: Q01DX001 (ip), vehicle: saline 104 % of control | dose: 10.0 mg/kg/injection, schedule: Q01DX001 (ip), vehicle: saline 107 % of control

O=C(CS)NNC(=O)CS
inactive: [18] 93 % of control | [21] 104 % of control | [19] 96 % of control | [22] 110 % of control | [20] 104 % of control | [23] 86 % of control

CC(C#N)(CCC(=O)O)N=NC(C)(C#N)CCC(=O)O (stereo not given)
inactive: [9] 102 % of control | [10] 103 % of control | [11] 108 % of control

CCOC(=O)C1CC2(Cl)C(Cl)=C(Cl)C1(Cl)C2(Cl)Cl (stereo not given)
inactive: [9] 98 % of control | [21] 94 % of control | [10] 93 % of control | [22] 94 % of control | [11] 98 % of control | [23] 93 % of control

CCCCOC(=O)Cc1cccc2ccccc12
inactive: dose: 222.0 mg/kg/injection, schedule: Q01DX Z (ip), vehicle: methylcellulose (MC) 102 % of control | dose: 333.0 mg/kg/injection, schedule: Q01DX Z (ip), vehicle: methylcellulose (MC) 110 % of control | dose: 500.0 mg/kg/injection, schedule: Q01DX Z (ip), vehicle: methylcellulose (MC) 104 % of control

CCOC(=O)C1CCC1C(=O)OCC (stereo not given)
inactive: dose: 50.0 mg/kg/injection, schedule: Q01DX009 (ip), vehicle: saline 95 % of control | [24] 95 % of control | [21] 96 % of control | [25] 94 % of control | [22] 102 % of control | [23] 102 % of control

O=C(CS(=O)(=O)O)Nc1ccccc1 (tested in a mixture with another compound)
inactive: [1] 93 % of control | [2] 103 % of control | [3] 90 % of control

O=C(O)c1ccc2c(c1)C(=O)c1ccccc1C2=O
inactive: dose: 100.0 mg/kg/injection, schedule: Q04DX002 (ip), vehicle: saline with Tween-80 105 % of control | dose: 200.0 mg/kg/injection, schedule: Q04DX002 (ip), vehicle: saline with Tween-80 99 % of control

CCCSc1ccc2c3c(cccc13)C(=O)OC2=O
inactive: [13] 101 % of control | [14] 98 % of control

C=C(C)Cc1c(C)c(Cl)cc(Cl)c1O
inactive: [8] 103 % of control | [9] 103 % of control

CCOC(=O)NC1CCC2c3ccccc3C([N+](=O)[O-])(C1)c1ccccc12 (stereo not given)
inactive: [4] 106 % of control | [15] 95 % of control | [17] 90 % of control

CNC(=O)NCCOC(=O)NC
inactive: [24] 94 % of control | [21] 96 % of control | [25] 98 % of control | [22] 101 % of control | dose: 400.0 mg/kg/injection, schedule: Q01DX009 (ip), vehicle: saline 107 % of control | [23] 101 % of control

O=S(=O)(Nc1nccs1)c1ccc(N(CCCl)CCCl)cc1
inactive: [12] 116 % of control
